Reference: ChEMBL document CHEMBL5726293, “Substituted pyrimidine compounds” (2019)

Target: 3',5'-cyclic-AMP phosphodiesterase 4B (Homo sapiens, UniProt Q07343)
Assay: cAMP HTRF Assay to Determine the Activity of hPDE4B1: The inhibiting effect of the compounds on the enzyme activity of human PDE4B1 was measured by the quantification of 5′-adenosine monophosphate (5′-AMP), which is formed from 3′,5′-cyclic adenosine monophosphate (cAMP). Human recombinant enzyme, expressed in Sf9 cells, and the HTRF (homogeneous time-resolved fluorescence) detection method were used in the assay.The test compound or water (control) was mixed with the human recombinant PDE4B1 enzyme (4.8 U) in a buffer consisting of 44.4 mM tris-HCl, 5.28 mM MgCl2, 2.64 mM DTT and 0.044% Tween 20 (pH 7.8). After adding the cAMP enzyme substrate (final concentration 40 nM), the mixture was incubated for 30 minutes at room temperature. Then a fluorescence acceptor (Dye2 marked with cAMP), a fluorescence donor (anti-cAMP antibody marked with a europium cryptate) and the non-specific phosphodiesterase inhibitor IBMX (3-isobutyl-1-methylxanthine; final concentration 1 mM) were added. After 60 min the fluorescence transfer, which correlates with the amount of remaining cAMP, was measured with a microplate reader (Rubystar, BMG) at λex=337 nm, λem=620 nm and λem=665 nm. The enzyme activity was calculated from the quotient formed from the measured signal at 665 nm and that at 620 nm. […]

Sequence of 3',5'-cyclic-AMP phosphodiesterase 4B (Q07343 whole entry): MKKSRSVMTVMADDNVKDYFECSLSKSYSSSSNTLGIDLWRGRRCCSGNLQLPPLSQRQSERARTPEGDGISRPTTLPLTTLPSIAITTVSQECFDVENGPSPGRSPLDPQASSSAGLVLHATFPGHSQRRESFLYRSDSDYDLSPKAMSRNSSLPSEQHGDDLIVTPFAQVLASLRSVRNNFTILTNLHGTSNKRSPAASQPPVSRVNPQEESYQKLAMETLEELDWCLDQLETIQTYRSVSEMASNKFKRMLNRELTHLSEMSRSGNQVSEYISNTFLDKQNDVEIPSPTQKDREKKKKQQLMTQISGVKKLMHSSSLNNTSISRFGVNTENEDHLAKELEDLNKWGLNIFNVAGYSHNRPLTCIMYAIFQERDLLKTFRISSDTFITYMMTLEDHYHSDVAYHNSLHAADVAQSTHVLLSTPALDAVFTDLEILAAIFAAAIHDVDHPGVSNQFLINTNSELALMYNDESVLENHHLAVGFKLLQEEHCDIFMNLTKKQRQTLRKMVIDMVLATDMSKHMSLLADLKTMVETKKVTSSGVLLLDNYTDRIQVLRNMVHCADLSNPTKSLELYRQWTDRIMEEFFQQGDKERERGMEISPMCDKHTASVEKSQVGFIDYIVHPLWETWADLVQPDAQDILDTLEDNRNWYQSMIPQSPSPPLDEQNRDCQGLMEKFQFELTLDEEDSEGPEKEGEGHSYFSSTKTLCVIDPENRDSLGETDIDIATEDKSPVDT

Row | IC50 [µM] | Structure (SMILES)
1 | < 0.1 | CNCCN(C)C(=O)c1ccc2c(c1)N(c1ncc(-c3ccccc3F)cn1)CC21CC1
2 | < 0.1 | CCc1csc(-c2cnc(N3CC4(CC4)c4ccc(C(=O)N(C)CCO)cc43)nc2)n1
